This experiment deals with methionyl-tRNA synthetase (Trypanosoma brucei brucei). In words: T. brucei MetRS inhibitors, orthogonal readout, late-stage follow-up, orthogonal assay for T. brucei MetRS inhibitor project, biochemical, fluorescence polarization, dose response, round 3 (AID 1053134). The conditions noted are these: recombinant T. brucei MetRS.

The source made the active and inactive calls. How the calls were made is not given here.

A word on the IC50: it is the concentration at which inhibition is half-maximal.

Consider `CCN(CC)C(=O)C(=O)c1cn(CC(=O)Nc2cc(Oc3ccc(F)cc3)cc(C(F)(F)F)c2)c2ccccc12`, for which the IC50 was 632 nM. Regarding `Nc1c(Cl)ncnc1Nc1ccc(C(=O)O)cc1`, the IC50 is 8500 nM. As for `O=C(Cn1cc(C(=O)C(=O)NCc2ccccc2)c2ccccc21)Nc1cc(Oc2ccccc2)cc(C(F)(F)F)c1`, the IC50 entry is “inactive”. As for `CCN(CC)C(=O)C(=O)c1cn(CC(=O)Nc2cc(Oc3ccccc3)cc(C(F)(F)F)c2)c2ccccc12`, the half-inhibitory concentration (IC50) was 145 nM.

On to `CCN(CC)C(=O)C(=O)c1cn(CC(=O)Nc2cc(Oc3ccccc3OC)cc(C(F)(F)F)c2)c2ccccc12`, for which the IC50 was 521 nM. The result for `CCN(CC)C(=O)C(=O)c1cn(CC(=O)Nc2cc(Oc3ccccc3F)cc(C(F)(F)F)c2)c2ccccc12` reads 381 nM. As for `CCN(CC)C(=O)C(=O)c1cn(CCNc2cc(Oc3ccccc3)cc(C(F)(F)F)c2)c2ccccc12`, the IC50 was > 119000 nM (inactive). Regarding `CCN(CC)C(=O)C(=O)c1cn(CC(=O)Nc2cccc(C(F)(F)F)c2)c2ccccc12`, the IC50 was 360 nM. In the case of `CCN(CC)C(=O)C(=O)c1cn(CCNc2cccc(C(F)(F)F)c2)c2ccccc12`, the IC50 is > 119000 nM (inactive). With `O=C(Cc1ccc(Nc2nc3ccc(Br)cc3[nH]2)cc1)NCCc1cccs1` the entry was “inactive”; with `CCN(CC)C(=O)Cc1cn(CC(=O)Nc2cccc(C(F)(F)F)c2)c2ccccc12`, > 119000 nM (inactive).

With `CCN(CC)C(=O)C(=O)c1cn(CC(=O)Nc2cc(Oc3ccc(OC)cc3)cc(C(F)(F)F)c2)c2ccccc12`, the 50% inhibitory concentration (IC50) was 477 nM.
